Test results: ChEMBL document CHEMBL1201862, “PubChem BioAssay data set” (2004)
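A five-concentration, 48-hour dose response in 96-well plates underlies each endpoint, interpolated linearly between surrounding concentrations. At the GI50, growth is halved.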 Calls of active or inactive are those of the source. Rule as the data show it: active = GI50 up to about 1.1 µM and inactive = higher.

How the values were obtained:
Assay in all cases: NCI anticancer screen, dose series, 48 h
786-0 = test system: 786-0
A498 = test system: A498
A549 = test system: A549
ACHN = test system: ACHN
BT-549 = test system: BT-549
CAKI-1 = test system: CAKI-1
CCRF-CEM = test system: CCRF-CEM
COLO 205 = test system: COLO 205
DU-145 = test system: DU-145
EKVX = test system: EKVX
HCC 2998 = test system: HCC 2998
HCT-116 = test system: HCT-116
HCT-15 = test system: HCT-15
HL-60 = test system: HL-60
HOP-62 = test system: HOP-62
HOP-92 = test system: HOP-92
HT-29 = test system: HT-29
Hs-578T = test system: Hs-578T
IGROV-1 = test system: IGROV-1
K562 = test system: K562
KM12 = test system: KM12
LOX IMVI = test system: LOX IMVI
M14 = test system: M14
MCF7 = test system: MCF7
MDA-MB-231 = test system: MDA-MB-231
MDA-MB-435 = test system: MDA-MB-435
MDA-N = test system: MDA-N
MOLT-4 = test system: MOLT-4
Malme-3M = test system: Malme-3M
NCI-H226 = test system: NCI-H226
NCI-H23 = test system: NCI-H23
NCI-H460 = test system: NCI-H460
NCI-H522 = test system: NCI-H522
NCI/ADR-RES = test system: NCI/ADR-RES
OVCAR-3 = test system: OVCAR-3
OVCAR-4 = test system: OVCAR-4
OVCAR-5 = test system: OVCAR-5
OVCAR-8 = test system: OVCAR-8
PC-3 = test system: PC-3
RPMI-8226 = test system: RPMI-8226
RXF 393 = test system: RXF 393
SF-268 = test system: SF-268
SF-295 = test system: SF-295
SF-539 = test system: SF-539
SK-MEL-28 = test system: SK-MEL-28
SK-MEL-2 = test system: SK-MEL-2
SK-MEL-5 = test system: SK-MEL-5
SK-OV-3 = test system: SK-OV-3
SN12C = test system: SN12C
SNB-19 = test system: SNB-19
SNB-75 = test system: SNB-75
SR = test system: SR
SW-620 = test system: SW-620
T47D = test system: T47D
TK-10 = test system: TK-10
U-251 = test system: U-251
UACC-257 = test system: UACC-257
UACC-62 = test system: UACC-62
UO-31 = test system: UO-31

`C=Cc1nc2c(Cl)ncnc2n1Cc1ccccc1` was tested, and the GI50 (786-0) was 1.6 µM (inactive), the GI50 (A498) was 7.13 µM (inactive) and the GI50 (A549) was 11.2 µM (inactive). The GI50 (ACHN) was 1.86 µM (inactive), the GI50 (BT-549) was 4.71 µM (inactive) and the GI50 (CAKI-1) was 1.91 µM (inactive). The GI50 (CCRF-CEM) was 2.74 µM (inactive), the GI50 (COLO 205) was 1.53 µM (inactive) and the GI50 (DU-145) was 2.17 µM (inactive). For the same molecule, the GI50 (EKVX) was 4.7 µM (inactive), the GI50 (HCC 2998) was 2.61 µM (inactive) and the GI50 (HCT-116) was 2.06 µM (inactive). For the same molecule, the GI50 (HCT-15) was 2.51 µM, the GI50 (HL-60) was 2.72 µM (inactive) and the GI50 (HOP-62) was 3.34 µM (inactive). The GI50 (HOP-92) was 2.07 µM (inactive), the GI50 (HT-29) was 2.62 µM (inactive) and the GI50 (Hs-578T) was 13.2 µM (inactive). For the same molecule, the GI50 (IGROV-1) was 3.08 µM (inactive), the GI50 (K562) was 3.05 µM (inactive) and the GI50 (KM12) was 2.84 µM (inactive). The GI50 (LOX IMVI) was 2.76 µM (inactive), the GI50 (M14) was 3.88 µM (inactive) and the GI50 (MCF7) was 1.55 µM (inactive). For the same molecule, the GI50 (MDA-MB-231) was 5.74 µM (inactive), the GI50 (MDA-MB-435) was 2.65 µM (inactive) and the GI50 (MDA-N) was 3.12 µM (inactive). For the same molecule, the GI50 (MOLT-4) was 2.18 µM (inactive), the GI50 (Malme-3M) was 4.03 µM (inactive) and the GI50 (NCI-H226) was 3.08 µM (inactive). The GI50 (NCI-H23) was 3.52 µM (inactive), the GI50 (NCI-H460) was 7.8 µM (inactive) and the GI50 (NCI-H522) was 1.89 µM (inactive). The GI50 (NCI/ADR-RES) was 3.7 µM (inactive), the GI50 (OVCAR-3) was 2.58 µM (inactive) and the GI50 (OVCAR-4) was 2.76 µM (inactive). The GI50 (OVCAR-5) was 14.7 µM (inactive), the GI50 (OVCAR-8) was 3.2 µM (inactive) and the GI50 (PC-3) was 3.52 µM (inactive). For the same molecule, the GI50 (RPMI-8226) was 0.839 µM (active), the GI50 (RXF 393) was 2.69 µM (inactive) and the GI50 (SF-268) was 6.35 µM (inactive). The GI50 (SF-295) was 15.6 µM (inactive), the GI50 (SF-539) was 2.13 µM (inactive) and the GI50 (SK-MEL-28) was 3.1 µM (inactive). The GI50 (SK-MEL-2) was 12.1 µM (inactive), the GI50 (SK-MEL-5) was 2.54 µM (inactive) and the GI50 (SK-OV-3) was 15.3 µM (inactive). The GI50 (SN12C) was 6.43 µM (inactive), the GI50 (SNB-19) was 14.8 µM (inactive) and the GI50 (SNB-75) was 13.6 µM (inactive). The GI50 (SR) was 2.56 µM (inactive), the GI50 (SW-620) was 5.94 µM (inactive) and the GI50 (T47D) was 2.59 µM (inactive). The GI50 (TK-10) was 2.11 µM (inactive), the GI50 (U-251) was 10.5 µM (inactive) and the GI50 (UACC-257) was 2.59 µM (inactive). For the same molecule, the GI50 (UACC-62) was 6.68 µM (inactive) and the GI50 (UO-31) was 2.51 µM (inactive).

With `COc1ccc(NC2C(=O)C3(C)CCC2C3(C)C)cc1` (stereo not drawn) the GI50 (786-0) was > 100 µM (inactive), the GI50 (A498) was > 100 µM (inactive) and the GI50 (A549) was > 100 µM (inactive). For the same molecule, the GI50 (ACHN) was > 100 µM (inactive), the GI50 (BT-549) was 69 µM (inactive) and the GI50 (CAKI-1) was > 100 µM (inactive). The GI50 (CCRF-CEM) was > 100 µM (inactive), the GI50 (COLO 205) was > 100 µM (inactive) and the GI50 (DU-145) was > 100 µM (inactive). For the same molecule, the GI50 (EKVX) was > 100 µM (inactive), the GI50 (HCC 2998) was > 100 µM (inactive) and the GI50 (HCT-116) was > 100 µM (inactive). The GI50 (HCT-15) was greater than 100 µM, the GI50 (HL-60) was 29.3 µM (inactive) and the GI50 (HOP-62) was > 100 µM (inactive). For the same molecule, the GI50 (HOP-92) was 33.4 µM (inactive), the GI50 (HT-29) was 40.4 µM (inactive) and the GI50 (Hs-578T) was > 100 µM (inactive). For the same molecule, the GI50 (IGROV-1) was > 100 µM (inactive), the GI50 (K562) was 63.7 µM (inactive) and the GI50 (KM12) was > 100 µM (inactive). The GI50 (LOX IMVI) was > 100 µM (inactive), the GI50 (M14) was > 100 µM (inactive) and the GI50 (MCF7) was > 100 µM (inactive). The GI50 (MDA-MB-231) was > 100 µM (inactive), the GI50 (MDA-MB-435) was > 100 µM (inactive) and the GI50 (MDA-N) was > 100 µM (inactive). The GI50 (MOLT-4) was 67.8 µM (inactive), the GI50 (Malme-3M) was > 100 µM (inactive) and the GI50 (NCI-H226) was 67.8 µM (inactive). For the same molecule, the GI50 (NCI-H23) was > 100 µM (inactive), the GI50 (NCI-H460) was > 100 µM (inactive) and the GI50 (NCI-H522) was 79.4 µM (inactive). For the same molecule, the GI50 (NCI/ADR-RES) was > 100 µM (inactive), the GI50 (OVCAR-3) was > 100 µM (inactive) and the GI50 (OVCAR-4) was 72.9 µM (inactive). For the same molecule, the GI50 (OVCAR-5) was > 100 µM (inactive), the GI50 (OVCAR-8) was > 100 µM (inactive) and the GI50 (PC-3) was 97.7 µM (inactive). For the same molecule, the GI50 (RPMI-8226) was 52.2 µM (inactive), the GI50 (RXF 393) was > 100 µM (inactive) and the GI50 (SF-268) was > 100 µM (inactive). For the same molecule, the GI50 (SF-295) was > 100 µM (inactive), the GI50 (SF-539) was > 100 µM (inactive) and the GI50 (SK-MEL-28) was > 100 µM (inactive). For the same molecule, the GI50 (SK-MEL-2) was > 100 µM (inactive), the GI50 (SK-MEL-5) was 34.5 µM (inactive) and the GI50 (SK-OV-3) was > 100 µM (inactive). For the same molecule, the GI50 (SN12C) was > 100 µM (inactive), the GI50 (SNB-19) was > 100 µM (inactive) and the GI50 (SNB-75) was > 100 µM (inactive). The GI50 (SR) was 74.8 µM (inactive), the GI50 (SW-620) was > 100 µM (inactive) and the GI50 (T47D) was > 100 µM (inactive). For the same molecule, the GI50 (TK-10) was > 100 µM (inactive), the GI50 (U-251) was > 100 µM (inactive) and the GI50 (UACC-257) was 49 µM (inactive). For the same molecule, the GI50 (UACC-62) was > 100 µM (inactive) and the GI50 (UO-31) was 54.7 µM (inactive).
